Measurements from patent publication US11339171B2, “MDM2 inhibitors” (Gan & Lee Pharmaceuticals, priority 2017, dated 2022).

Experiments:
[1] = target: T1, MDM2 (Homo sapiens, UniProt Q00987); assay: Inhibition test of MDM2-P53 (GST-MDM2, Biotin-P53, Anti-GST-Tb, SA-XL665); type: binding
T1 construct: made in house
How it was run: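 Compounds, serially diluted 5-fold (twelve concentrations), were shaken for 90 min at 25° C with a mix of GST-MDM2 (4 nM final), Biotin-P53, anti-GST-Tb and SA-XL665. Buffer: 1×PBS, 0.1% BSA, 5 mM DTT, 1 mM AEBSF; signal read on a microplate reader.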

[2] = system: human osteosarcoma cell line SJSA-1; assay: Inhibition of proliferation of human osteosarcoma cell line SJSA-1 (DAPI staining, In Cell Analyzer); settings: Homo sapiens, SJSA-1, 72 h, read-out: IC50 (nM), inhibitory activity on proliferation of human osteosarcoma cell line SJSA-1, SJSA-1, incubated 72 h

T1 sequence (Q00987 whole entry): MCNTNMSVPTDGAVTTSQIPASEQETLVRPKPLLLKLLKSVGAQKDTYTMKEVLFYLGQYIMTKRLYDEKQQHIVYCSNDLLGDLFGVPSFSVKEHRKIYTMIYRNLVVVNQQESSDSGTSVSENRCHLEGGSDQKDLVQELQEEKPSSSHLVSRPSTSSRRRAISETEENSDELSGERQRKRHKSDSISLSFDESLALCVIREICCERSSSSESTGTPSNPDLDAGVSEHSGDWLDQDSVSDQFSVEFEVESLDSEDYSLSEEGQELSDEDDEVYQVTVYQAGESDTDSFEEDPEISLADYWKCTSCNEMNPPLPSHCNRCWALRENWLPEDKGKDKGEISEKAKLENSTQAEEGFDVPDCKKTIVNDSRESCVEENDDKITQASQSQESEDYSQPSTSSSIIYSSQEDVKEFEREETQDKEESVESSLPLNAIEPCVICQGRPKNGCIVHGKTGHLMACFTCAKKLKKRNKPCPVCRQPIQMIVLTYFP

SMILES	IC50 [1] [nM]	IC50 [2] [nM]
COc1cc(N(C)CCO)ccc1-c1nc2c(n1C(C)C)[C@@]1(C(=O)Nc3cc(Cl)ccc31)N(c1cc(Cl)ccc1C)C2=O [Example S-162, (S)-6-chloro-5′-(5-chloro-2-methylphenyl)-2′-(4-((2-hydroxyethyl)(methyl)amino)-2-methoxyphenyl)-3′-isopropyl-3′H-spiro[dihydroindole-3,4′-pyrrolo[3,4-d]imidazole]-2,6′(5′H)-dione]	2.07	14.9
COc1cc(OCCF)ncc1-c1nc2c(n1C(C)C)[C@@]1(C(=O)Nc3cc(Cl)ccc31)N(c1cc(Cl)ccc1C)C2=O [Example S-163, (S)-6-chloro-5′-(5-chloro-2-methylphenyl)-2′-(6-(2-fluoroethoxy)-4-methoxypyridin-3-yl)-3′-isopropyl-3′H-spiro[dihydroindole-3,4′-pyrrolo[3,4-d]imidazole]-2,6′(5′H)-dione]	1.36	126
COc1cc(C(C)C)ncc1-c1nc2c(n1C(C)C)[C@@]1(C(=O)Nc3cc(Cl)ccc31)N(c1cc(Cl)ccc1C)C2=O [Example S-164, (S)-6-chloro-5′-(5-chloro-2-methylphenyl)-3′-isopropyl-2′-(6-isopropyl-4-methoxypyridin-3-yl)-3′H-spiro[dihydroindole-3,4′-pyrrolo[3,4-d]imidazole]-2,6′(5′H)-dione]	0.94	16.8
COc1cc(C(C)C)ncc1-c1nc2c(n1C(C)C)[C@@]1(C(=O)Nc3cc(Cl)ccc31)N(c1cc(Cl)cnc1C)C2=O [Example S-166, (S)-6-chloro-5′-(5-chloro-2-methylpyridin-3-yl)-3′-isopropyl-2′-(6-isopropyl-4-methoxypyridin-3-yl)-3′H-spiro[dihydroindole-3,4′-pyrrolo[3,4-d]imidazole]-2,6′(5′H)-dione]	1.88	38.1
COc1nc(OCCF)ncc1-c1nc2c(n1C(C)C)[C@@]1(C(=O)Nc3cc(Cl)ccc31)N(c1cc(Cl)cnc1C)C2=O [Example S-170, (S)-6-chloro-5′-(5-chloro-2-methylpyridin-3-yl)-2′-(2-(2-fluoroethoxy)-4-methoxypyrimidin-5-yl)-3′-isopropyl-3′H-spiro[dihydroindole-3,4′-pyrrolo[3,4-d]imidazole]-2,6′(5′H)-dione]	1.86	131
COc1nc(OCCF)ncc1-c1nc2c(n1C(C)C)[C@@]1(C(=O)Nc3cc(Cl)ccc31)N(c1cccc(Cl)c1)C2=O [Example S-171, (S)-6-chloro-5′-(3-chlorophenyl)-2′-(2-(2-fluoroethoxy)-4-methoxypyrimidin-5-yl)-3′-isopropyl-3′H-spiro[dihydroindole-3,4′-pyrrolo[3,4-d]imidazole]-2,6′(5′H)-dione]	2.86	379
COc1nc(C(C)C)ncc1-c1nc2c(n1C(C)C)[C@@]1(C(=O)Nc3cc(Cl)ccc31)N(c1cc(Cl)ccc1C)C2=O [Example S-172, (S)-6-chloro-5′-(5-chloro-2-methylphenyl)-3′-isopropyl-2′-(2-isopropyl-4-methoxypyrimidin-5-yl)-3′H-spiro[dihydroindole-3,4′-pyrrolo[3,4-d]imidazole]-2,6′(5′H)-dione]	4.15	53.3
COc1cc(OCCF)ncc1-c1nc2c(n1C(C)C)[C@@]1(C(=O)Nc3cc(Cl)ccc31)N(c1cc(Cl)cnc1C)C2=O [Example S-173, (S)-6-chloro-5′-(5-chloro-2-methylpyridin-3-yl)-2′-(6-(2-fluoroethoxy)-4-methoxypyridin-3-yl)-3′-isopropyl-3′H-spiro[dihydroindole-3,4′-pyrrolo[3,4-d]imidazole]-2,6′(5′H)-dione]	1.39	217
COc1nc(C2CC2)ncc1-c1nc2c(n1C(C)C)[C@@]1(C(=O)Nc3cc(Cl)ccc31)N(c1cc(F)cc(Cl)c1)C2=O [Example S-174, (S)-6-chloro-5′-(3-chloro-5-fluorophenyl)-2′-(2-cyclopropyl-4-methoxypyrimidin-5-yl)-3′-isopropyl-3′H-spiro[dihydroindole-3,4′-pyrrolo[3,4-d]imidazole]-2,6′(5′H)-dione]	4.12	93.5
COc1cc(OC)c(-c2nc3c(n2C(C)C)[C@@]2(C(=O)Nc4cc(Cl)ccc42)N(c2cc(F)cc(Cl)c2)C3=O)cn1 [Example S-175, (S)-6-chloro-5′-(3-chloro-5-fluorophenyl)-2′-(4,6-dimethoxypyridin-3-yl)-3′-isopropyl-3′H-spiro[dihydroindole-3,4′-pyrrolo[3,4-d]imidazole]-2,6′(5′H)-dione]	1.96	49.2
COc1cc(C2CC2)ncc1-c1nc2c(n1C(C)C)[C@@]1(C(=O)Nc3cc(Cl)ccc31)N(c1cc(F)cc(Cl)c1)C2=O [Example S-176, (S)-6-chloro-5′-(3-chloro-5-fluorophenyl)-2′-(6-cyclopropyl-4-methoxypyridin-3-yl)-3′-isopropyl-3′H-spiro[dihydroindole-3,4′-pyrrolo[3,4-d]imidazole]-2,6′(5′H)-dione]	1.76	28.8
COc1cc(OCCF)ncc1-c1nc2c(n1C(C)C)[C@@]1(C(=O)Nc3cc(Cl)ccc31)N(c1cccc(Cl)c1)C2=O [Example S-177, (S)-6-chloro-5′-(3-chlorophenyl)-2′-(6-(2-fluoroethoxy)-4-methoxypyridin-3-yl)-3′-isopropyl-3′H-spiro[dihydroindole-3,4′-pyrrolo[3,4-d]imidazole]-2,6′(5′H)-dione]	2.37	421
CCOc1ncc(-c2nc3c(n2C(C)C)[C@@]2(C(=O)Nc4cc(Cl)ccc42)N(c2cc(F)cc(Cl)c2)C3=O)c(OC)n1 [Example S-180, (S)-6-chloro-5′-(3-chloro-5-fluorophenyl)-2′-(2-ethoxy-4-methoxypyrimidin-5-yl)-3′-isopropyl-3′H-spiro[dihydroindole-3,4′-pyrrolo[3,4-d]imidazole]-2,6′(5′H)-dione]	4.6	56.8
